Data reported in patent publication US10258599B2, “Compounds for use in the prevention or treatment of cancer” (SEMMELWEIS UNIVERSITY, priority 2014, dated 2019).
Entries after “also recorded” stand apart in the source; their conditions may differ.

Experiments:
lung carcinoma = test: Longevity study on FVB/N mice: spontaneous lung carcinoma at autopsy; type: in vivo, mouse; conditions: for Number of detected lung carcinoma: 18-month, 4 dissected mice
Description: Body weight is measured bimonthly.
For monitoring, we planned to sacrifice mice from each group at 6-month, 1-year, 1.5-year and 2-year time-points; the rest of the animals are kept until spontaneous death.
The results are shown in Table 4 and on FIGS. 19 and 20. Significance levels were calculated with two-sided Chi-square test.

[1] = system: male Wistar rats (Charles River); test: Longevity study: survival of rats treated 3 times a week s.c.; type: in vivo, rat
Description: Experiments were carried out on male Wistar rats (Charles River) weighing 250-350 g received from the breeding colony of Semmelweis University. The animals were kept in a 12-hour light-dark cycle and under condition of controlled temperature (22±2° C.) and relative humidity (55±5%). Room temperature and relative humidity was checked daily. The rats were maintained on standard laboratory chow and tap water ad libitum. All procedures conformed to the European Convention for the protection of vertebrate animals used for experimental and other scientific purposes. The study was approved by the Animal Ethics Committee of Semmelweis University, Budapest (permission number: 1810/003/2004)
(§1) The longevity study was performed on 200 male rats received from the breeding colony of the Semmelweis University. The rats were born at the end of February of 2010. After 2-month acclimation period the rats were divided randomly into 5 even groups. The longevity study started at the beginning of May 2010. Animals were observed until their natural deaths. The data in this study represent the changes observed until Oct. 31, 2012, since in the saline-treated group the last animal died on Oct. 31, 2012. As will be shown later a few rats in the enhancer-treated groups were still alive on Nov. 1, 2012.
(§2) During the longevity study 5 rats were housed together in polycarbonate cages (height: 18 cm; wide: 42 cm; length: 44 cm) with a stainless steel on the top. Cage bedding was renewed 3 times a week (Monday, Wednesday and Friday). Bodyweight was measured once every month. The treatment started at the end of the second month of their age.
To avoid the mixing of the groups and individuals, saline-treated rats were signed blue from 1 to 40; D-treated rats were signed green from 1 to 80 (1-40: rats treated with 0.1 mg/kg and 41-80: rats treated with 0.001 mg/kg); B-treated rats were signed black from 1 to 80 (1-40: rats treated with 0.05 mg/kg and 41-80: rats treated with 0.0001 mg/kg).
(§3) Significance in the performance between the groups in the shuttle box was evaluated by multi-factor analysis of variance (ANOVA). Significance regarding the span of time from tumor manifestation until death in rats and regarding aging related changes in bodyweight treated chronically with the enhancer substances was analyzed by One-way ANOVA. Statistical analysis of survival rate and tumor manifestation was performed by the Kaplan-Meier method.

[2] = system: catecholaminergic neurons; test: Shuttle box: antagonism of tetrabenazine-induced learning deficit (conditioned avoidance reflex); type: in vivo, rat
Description: In a modified version of the shuttle box the acquisition of a two-way conditioned avoidance reflex (CAR) was analyzed during 5 consecutive days. The rat was put in a box divided inside into two parts by a barrier with a small gate in the middle, and the animal was trained to cross the barrier under the influence of a conditioned stimulus (CS, light flash). […] One trial consisted of 10 s intertrial interval, followed by 20 s CS. The last 5 s of CS overlaped the 5 s US. At each learning session, the number of CARs, EFs and intersignal reactions (IRs) are automatically counted and evaluated by multi-way ANOVA.
Tetrabenazine-treatment (1 mg/kg s.c.) depletes at least 90% of norepinephrine and dopamine from their stores in the nerve terminals of the catecholaminergic neurons in the brain stem. Due to the weak performance of the catecholaminergic brain engine, the activation of the cortical neurons remains below the level required for the acquisition of a CAR. The learning deficit caused by tetrabenazine-treatment can be antagonized by the administration of a synthetic CAE substance or an A-type MAO inhibitor, whereas selective inhibition of B-type MAO or inhibition of the reuptake of catecholamines and/or serotonin is ineffective (Knoll et al., 1992).

[3] = system: isolated locus coerulei of rats; conditions: Knoll et al., 1999, Miklya, Knoll B, 2002; cited from earlier work
[4] = system: isolated locus coerulei of rats; test: Norepinephrine release from isolated locus coerulei in organ bath; parameters: species or system rat; conditions: released within 20 min (FIG. 18)
Description: In this study (−)-BPAP was given to the organ bath of the quickly removed locus coerulei of rats. Eight organs were used for the analysis of each concentration. The amount of norepinephrine released within 20 min from the tissue in the presence of different concentrations of (−)-BPAP was measured according to Knoll and Miklya (1995) (Paired Student's t-test. *P<0.01, **P<0.001.)

[5] = system: mouse lung adenocarcinoma tumors; test: Mouse lung adenocarcinoma xenograft model in FVB/N mice; type: in vivo
Description: Mouse primary lung adenocarcinoma tumors maintained subcutaneously were utilized in the present study. Tumors with sizes of 3 mm in diameter were implanted subcutaneously in a total of 18 FVB/N female mice with a bodyweight of 25 g. From the day after tumor inoculation, 6-6 animals started receiving (−)-BPAP daily as a subcutaneous injection at a concentration of either 0.0001 mg/kg (low dose) or 0.05 mg/kg (high dose). Tumor sizes were measured twice a week using a digital caliper. Tumor volumes were calculated by the following formula: […]
Statistical analyses were made by Graphpad Prism 4.03 software. Significances of changes between control and (−)-BPAP-treated groups were assessed by using Mann-Whitney U-test. Significance was declared at the standard p<0.05 level.

fibromyxosarcoma = test: Longevity study: manifestation of subcutaneous fibromyxosarcoma (TMS effect); type: in vivo, rat; conditions: for tumor manifestation suppressing (TMS) effect versus saline: Kaplan-Meier, P<0.001
Description: as §1, §2
We carefully observed the appearance of the subcutaneous tumor and followed the development of the tumor until death. Histological analysis was performed post mortem on several rats taken from each group as examples.
The subcutaneous tumors developed in the rats were measured by the two largest diameters. After sacrificing the animals, the tumors were removed, photographs were taken. Tissues were fixed immediately after removal in 10% neutral formalin (in PBS, pH7.0) for 24 hours at room temperature, dehydrated and embedded in paraffin. 3-4 micrometer thick sections were cut and stained by hematoxylin and eosin (HE) as a routine.
as §3

[6] = 0.0001 mg/kg, N=40, listed as BPAP
[7] = shuttle box, 1 mg/kg tetrabenazine s.c.

CCCN[C@H](CCC)Cc1cc2ccccc2o1 [(−)-BPAP, (2R)-1-(1-benzofuran-2-yl)-N-propylpentane-2-amine]
Number of detected lung carcinoma (lung carcinoma; 0.0001 mg/kg daily): 0 | Number of detected lung carcinoma (lung carcinoma; 0.05 mg/kg daily): 1 | manifestation of lung carcinoma (lung carcinoma; extremely low dose (0.0001 mg/kg), 1.5-year (FIG. 20)): completely prevented the manifestation of lung carcinoma | lifespan compared with saline-treated peers ([1]; 0.0001 mg/kg 3 times a week, P<0.05): lived significantly longer | month of age in which the first animal died ([1]; 0.0001 mg/kg s.c. 3 times a week, N=40): 16 month | rats remained alive to the end of the 32nd month [1, 6]: one and One | month of age in which the first animal died ([1]; 0.05 mg/kg s.c. 3 times a week, N=40): 14 month | lifespan compared with saline-treated peers ([1]; both doses of the longevity study (FIGS. 5-8)): significantly longer | effect on tetrabenazine-induced learning deficit ([2]; 0.0001 mg/kg (FIG. 4)): antagonizing the tetrabenazine-induced learning deficit | dose with the non-specific enhancer effect selected for the longevity study [2, 7]: 50 µg/kg | optimal dose that exerted the specific enhancer effect [2, 7]: 0.1 µg/kg | very high dose range effective in antagonizing the tetrabenazine-induced learning deficit (MAO-A inhibition) [2, 7]: 2000 to 10000 µg/kg | concentration range of the specific enhancer effect on noradrenergic neurons [3]: femto/picomolar | concentration effect curve of norepinephrine release [4]: bi-modal, bell-shaped | tumor volume versus control ([5]; high dose 0.05 mg/kg s.c. daily): did not reach statistical significance | tumor volume versus control ([5]; low dose 0.0001 mg/kg s.c. daily, from day 12 after implantation, p<0.05): significant differences in tumor volume | tumor manifestation suppressing (TMS) effect versus saline (fibromyxosarcoma; 0.0001 mg/kg): significantly decreased; also recorded: more potent in suppressing tumor manifestation than 0.1 mg/kg (−)-deprenyl | tumor manifestation suppressing (TMS) effect versus saline (fibromyxosarcoma; 0.0001 mg/kg, listed as BPAP): highly efficient; also recorded: suppressed the manifestation of the fibromyxosarcoma significantly | month of age in which the first animal manifested the tumor (fibromyxosarcoma; 0.0001 mg/kg, N=40): 20 month | rats in the group manifested the tumor to the end of the 32nd month (fibromyxosarcoma; 0.0001 mg/kg, N=40): 8 rats | rats manifested the fibromyxosarcoma when the group completed the 30th month of life (fibromyxosarcoma; 0.0001 mg/kg, N=40): 8 rats | month of age in which the first animal manifested the tumor (fibromyxosarcoma; [6]): 25 month | tumor manifestation suppressing (TMS) effect versus saline (fibromyxosarcoma; 0.05 mg/kg): significantly decreased | tumor manifestation suppressing (TMS) effect versus saline (fibromyxosarcoma; 0.05 mg/kg, listed as BPAP): suppressed the manifestation of the fibromyxosarcoma significantly | month of age in which the first animal manifested the tumor (fibromyxosarcoma; 0.05 mg/kg, N=40): 13 month | rats in the group manifested the tumor to the end of the 32nd month (fibromyxosarcoma; 0.05 mg/kg, N=40): 7 rats | rats manifested the tumor when the group completed the 30th month of life (fibromyxosarcoma; 0.05 mg/kg, N=40): 7 rats | span of time from tumor manifestation until death (fibromyxosarcoma; chronic treatment, versus saline (FIG. 13), One-way ANOVA): no significant difference
